According to publication PMC10742472, “Synthesis and Characterisation of Platinum(II) Diaminocyclohexane Complexes with Pyridine Derivatives as Anticancer Agents” (International Journal of Molecular Sciences, 2023):

Columns and labels:
U87 (Glioblastoma) = assay: MTT cytotoxicity assay, U87; type: cell-based; conditions: 72 h exposure
BE2-C (Neuroblastoma) = assay: MTT cytotoxicity assay, BE2-C; type: cell-based; conditions: 72 h exposure
A431 (Skin) = assay: MTT cytotoxicity assay, A431; type: cell-based; conditions: 72 h exposure
MCF-7 (Breast) = assay: MTT cytotoxicity assay, MCF-7; type: cell-based; conditions: 72 h exposure
SJ-G2 (Glioblastoma) = assay: MTT cytotoxicity assay, SJ-G2; type: cell-based; conditions: 72 h exposure
HT29 (Colon) = assay: MTT cytotoxicity assay, HT29; type: cell-based; conditions: 72 h exposure
Du145 (Prostate) = assay: MTT cytotoxicity assay, Du145; type: cell-based; conditions: 72 h exposure
H460 (Lung) = assay: MTT cytotoxicity assay, H460; type: cell-based; conditions: 72 h exposure
MCF10A (Breast, Normal) = assay: MTT cytotoxicity assay, MCF10A non-cancer breast cells; type: cell-based; conditions: 72 h exposure
MIA (Pancreas) = assay: MTT cytotoxicity assay, MIA; type: cell-based; conditions: 72 h exposure
Calf-thymus DNA (ctDNA) = assay: Fluorescent intercalator displacement (FID) ctDNA binding assay with ethidium bromide; set-up: Ka (binding coefficient) / KF (binding constant for fluorescence) / Kq (bimolecular quenching constant) / KSV (Stern–Volmer quenching constant): unit not given here; conditions: 75 µM ethidium bromide, 150 µM ctDNA, pH 7.0
Description: To achieve this, the fluorescent signal of a DNA intercalator, in this case, ethidium bromide (EtBr), is measured as increasing concentrations of PC are added. As the PC displaces the EtBr, the fluorescence of the mixture is diminished, and the DNA binding capacity of the complex can be calculated from the fluorescence measurement. Calf-thymus DNA (ctDNA) was used and saturated with EtBr. The change in fluorescence is monitored as the complex is titrated into this solution. Once the decrease in fluorescence plateaued, the titration was ended. […] The fluorescence was measured from 550-750 nm and excited at 480 nm. Importantly, the cuvette was inverted four times, and the solution was incubated for 3 min after the addition of […] to allow adequate time for the PCs to interact with the DNA before scanning. […] A plot of F0/F against [PC] using experimental values allowed the determination of Kq and KSV from the slope as per Equation (5). (5) […] where n is the number of ethidium ligands that are displaced per PC. It is important to note that this expression is a simplification of the true binding interaction, as it ignores the effect of EtBr on the binding equilibrium. […] A plot of Log10[(F0 - F)/F)] against Log10[PC] was used to determine KF and n from the intercept and slope, respectively.

[1] = type: physicochemical
Description: Lipophilicity was calculated using RP-HPLC. A stock solution of each PC was injected at different isocratic ratios ranging from 70–90% solvent B (organic) at a flow rate of 1 mL·min^−1 [32, 33, 34]. The complexes have low solubility in water, often requiring DMSO to make concentrated solutions. Yet the LogK’ calculated using these experimental data indicated high lipophilicity, which is typical for 2+ charged complexes. […] When heat was applied, they would not precipitate out of the solution after cooling. This confirmed that a lack of persistence was the cause of the “observed” low solubility in H2O. […] Their increased lipophilicity may indicate they have the potential to be administered orally, a characteristic usually associated with Pt(IV) complexes. Other factors, such as stability and cellular absorption, would need to be considered before the potential of these Pt(II) anticancer agents could be evaluated.
Lipophilicity was evaluated using RP-HPLC, whereby LogKw is calculated by injecting a stock solution of the PC at different isocratic ratios ranging from 70–90% solvent B (organic) at a flow rate of 1 mL·min^−1. An Agilent Technologies 1260 Infinity machine equipped with a Phenomenex Onyx™ Monolithic C18 reverse phase column (100 × 4.6 mm, 130 Å) was used to determine purity. The mobile phase comprised 0.06% TFA in water (solvent A) and 0.06% TFA in 90:10 ACN:H2O mixture (solvent B). The PC peak was eluted outside the dead zero volume time to avoid inaccurate results. The dead zero volume time was determined using potassium iodide as an external dead volume marker, with further details in the Supplementary Materials. The subsequent peaks were recorded, and K was calculated using Equation (6). (6) K=tr−t0/t0 where K is the capacity factor, tr is the retention time of the analyte, and t0 is the dead time determined using a solution of KI in the same column. At least five different isocratic ratios were used to assess each PC, and each experiment was repeated three times. LogK’ was then calculated and plotted against the concentration of ACN in the mobile phase. […] (7) LogK^′=Sφ+LogKw where S is the slope, φ is the concentration of ACN in the mobile phase, and LogKw represents the capacity factor of the compound in 100% water (Figure S49).

| Compound | GI50 (U87 (Glioblastoma)) | GI50 (BE2-C (Neuroblastoma)) | GI50 (A431 (Skin)) | GI50 (MCF-7 (Breast)) | GI50 (SJ-G2 (Glioblastoma)) | GI50 (HT29 (Colon)) | GI50 (Du145 (Prostate)) | GI50 (H460 (Lung)) | GI50 (MCF10A (Breast, Normal)) | GI50 (MIA (Pancreas)) | Binding Stoichiometry (Calf-thymus DNA (ctDNA)) | KF (binding constant for fluorescence) (Calf-thymus DNA (ctDNA)) | KSV (Stern–Volmer quenching constant) (Calf-thymus DNA (ctDNA)) | Ka (binding coefficient) (Calf-thymus DNA (ctDNA)) | Kq (bimolecular quenching constant) (Calf-thymus DNA (ctDNA)) | n (molar equivalents of PC at the point of intersection) (Calf-thymus DNA (ctDNA)) | ΔFsat (change in fluorescence at the point of binding) (Calf-thymus DNA (ctDNA)) | Lipophilicity [1] |
| --- | --- | --- | --- | --- | --- | --- | --- | --- | --- | --- | --- | --- | --- | --- | --- | --- | --- | --- |
| N.N.[Cl][Pt][Cl] [Cisplatin, reference compound] | 4 ± 1.1 µM | 0.4 ± 0.1 µM | 1.2 ± 0.1 µM | 6.5 ± 0.8 µM | 7.5 ± 1.3 µM | 11 ± 1.9 µM | 1.9 ± 0.2 µM | 2.4 ± 0.3 µM | – | – | – | – | – | – | – | – | – | – |
| [Cl][Pt][Cl].c1ccc(C2CCCN2)nc1 (stereo not drawn) [Complex 1, [Pt(PyPy)(Cl)2]] | 36 ± 1.5 µM | > 50 µM | > 50 µM | 30 ± 1 µM | > 50 µM | 53 ± 1 µM | > 50 µM | 16 ± 1.7 µM | > 50 µM | > 50 µM | 3.61 | 2.69 × 10^3 | 1.65 × 10^3 | 5.05 × 10^4 | 0.40 × 10^3 | 0.91 | 99.1 | – |
| [Cl][Pt][Cl].c1ccc(-c2ncc[nH]2)nc1 [Complex 2, [Pt(ImPy)(Cl)2]] | 30 ± 2 µM | 37 ± 4 µM | 42 ± 3.5 µM | 25 ± 2.3 µM | 14 ± 0.17 µM | 34 ± 2 µM | 36 ± 1.3 µM | 4 ± 1 µM | 13 ± 0.6 µM | 29 ± 2.3 µM | 3.82 | 3.12 × 10^3 | 1.68 × 10^3 | 2.75 × 10^4 | 0.50 × 10^3 | 1.18 | 80.9 | – |
| [Cl][Pt][Cl].c1ccc(-c2nc3ccccc3[nH]2)nc1 [Complex 3, [Pt(BImPy)(Cl)2]] | 37 ± 2 µM | > 50 µM | 47 ± 2.5 µM | 12 ± 1.2 µM | 42 ± 1.5 µM | > 50 µM | > 50 µM | 15 ± 3.1 µM | 45 ± 3.2 µM | > 50 µM | 3.40 | 3.72 × 10^3 | 2.18 × 10^3 | 5.10 × 10^4 | 0.51 × 10^3 | 1.24 | 110.3 | – |
| N[C@H]1CCCC[C@@H]1N.[Pt+2].c1ccc(C2CCCN2)nc1 [Complex 4a, [Pt(2-pyrrolidin-2-yl pyridine)(1S,2S-(+)-diaminocyclohexane)]^2+] | 48 ± 2.6 µM | 37.5 ± 0.5 µM | 9 ± 2.3 µM | 3.2 ± 0.6 µM | 17 ± 1.9 µM | > 50 µM | 47 ± 1.7 µM | 4.4 ± 0.7 µM | 42 ± 3 µM | 12 ± 1 µM | 1.48 | 6.20 × 10^3 | 4.16 × 10^3 | 1.06 × 10^4 | 0.83 × 10^3 | 1.83 | 135.0 | 2.68 ± 0.02 |
| N[C@H]1CCCC[C@@H]1N.[Pt+2].c1ccc(-c2ncc[nH]2)nc1 [Complex 5a, [Pt(2-(1H-Imidazol-2-yl)pyridine)(1S,2S-(+)-diaminocyclohexane)]^2+] | 0.036 ± 0.009 µM | 0.21 ± 0.04 µM | 0.37 ± 0.06 µM | 0.15 ± 0.03 µM | 2.7 ± 0.46 µM | 0.56 ± 0.1 µM | 0.29 ± 0.07 µM | 0.29 ± 0.05 µM | 0.15 ± 0.03 µM | 0.43 ± 0.07 µM | 0.80 | 3.16 × 10^3 | 2.11 × 10^3 | 5.89 × 10^4 | 0.36 × 10^3 | 0.87 | 122.4 | 2.50 ± 0.02 |
| N[C@H]1CCCC[C@@H]1N.[Pt+2].c1ccc(-c2nc3ccccc3[nH]2)nc1 [Complex 6a] | 0.034 ± 0.003 µM | 0.19 ± 0.02 µM | 0.36 ± 0.05 µM | 0.16 ± 0.03 µM | 2.7 ± 0.29 µM | 0.45 ± 0.02 µM | 0.3 ± 0.04 µM | 0.26 ± 0.04 µM | 0.15 ± 0.01 µM | 0.3 ± 0.03 µM | 0.84 | 2.94 × 10^3 | 2.12 × 10^3 | 0.66 × 10^4 | 0.30 × 10^3 | 0.71 | 116.7 | 2.42 ± 0.02 |
| [Pt(2-(1H-Imidazol-2-yl)pyridine)(1R,2R-(+)-diaminocyclohexane)]^2+ [Complex 5b] | 0.05 ± 0.01 µM | 0.3 ± 0.05 µM | 0.49 ± 0.07 µM | 0.3 ± 0.07 µM | 4.5 ± 0.6 µM | 0.75 ± 0.07 µM | 0.44 ± 0.07 µM | 0.37 ± 0.05 µM | 0.22 ± 0.03 µM | 0.56 ± 0.11 µM | 0.78 | 3.66 × 10^3 | 2.54 × 10^3 | 3.15 × 10^4 | 0.41 × 10^3 | 0.95 | 165.9 | – |
| [Pt(2-(2-pyridyl)benzimidazole)(1R,2R-(+)-diaminocyclohexane)]^2+ [Complex 6b] | 7.6 ± 0.46 µM | 30 ± 2.1 µM | 24 ± 2.6 µM | 8 ± 1.6 µM | 38 ± 5.9 µM | 33 ± 1.2 µM | 22 ± 1.5 µM | 16 ± 1.2 µM | 17 ± 1.5 µM | 30 ± 6.9 µM | 0.94 | 2.84 × 10^3 | 2.07 × 10^3 | 7.43 × 10^4 | 0.30 × 10^3 | 0.67 | 113.0 | 2.46 ± 0.025 |
| [Pt(2-pyrrolidin-2-yl pyridine)(1R,2R-(+)-diaminocyclohexane)]^2+ [Complex 4b] | 43 ± 0.67 µM | 31 ± 1.2 µM | 30 ± 4.7 µM | 12.5 ± 0.76 µM | > 50 µM | > 50 µM | > 50 µM | 31 ± 0.88 µM | 45 µM | 43 ± 1 µM | 1.17 | 5.77 × 10^3 | 3.85 × 10^3 | 1.40 × 10^4 | 0.74 × 10^3 | 1.68 | 121.0 | – |
